# According to EP4778531A1, “MUSCLE RELAXANT ANTAGONIST FOR REVERSAL FOR BENZYLISOQUINOLINE MUSCLE RELAXANT” (priority 2023, dated 2025):
# What was measured:
# [1] = test system: cisatracurium-induced guinea pig muscle relaxation model; test: Antagonism of residual muscle relaxation after cisatracurium in anesthetized guinea pigs (TOF monitoring); assay type: in vivo, Hartley guinea pigs; conditions: for Residual Muscle Relaxation Recovery Time tTOF0-50: spontaneous recovery before administration; for Degree of tTOF50-90 shortening: vs negative control group
# Method: Ninety (90) qualified Hartley guinea pigs, male, were used. Sixty (60) animals were randomly divided into 6 experimental groups based on body weight using a stratified random method: negative control group, positive control group, low-dose test group, medium-dose test group, high-dose test group, and combination group, with 10 animals per group (n=10). The remaining animals served as spares. The negative control group received 0.9% sodium chloride. The positive control group received 0.0625 mg/kg neostigmine methylsulfate (referred to as neostigmine). The low-dose test group received 10 mg/kg adamgammadex sodium. The medium-dose test group received 20 mg/kg adamgammadex sodium. The high-dose test group received 40 mg/kg adamgammadex sodium. The combination group received 10 mg/kg adamgammadex sodium and 0.03125 mg/kg neostigmine. The administration volume for all groups was 1 mL/kg.
# Adaptive feeding was conducted after the quarantine period. On the day of the experiment, guinea pigs were weighed, administered atropine (0.1 mg/kg) intramuscularly, and then anesthetized with an intraperitoneal injection of anesthetic (pentobarbital sodium 10 mg/kg, urethane 1000 mg/kg). After fixation, the animals were intubated and connected to a small animal ventilator. Both external jugular veins and the right carotid artery were cannulated. The left jugular vein was used for cisatracurium infusion, the right jugular vein for injection of different test substances, and the carotid artery was connected to a multi-channel physiological signal acquisition and processing system for continuous monitoring of arterial blood pressure and heart rate. Electrode patches were subcutaneously placed behind the left femur and tibia of the guinea pig, and two stimulating electrodes of the neuromuscular monitor were fixed to the two electrode patches. The left hind paw was fixed on a custom-made platform. A sensor was fixed to the skin surface over the gastrocnemius muscle of the left hind limb, and a skin temperature probe was fixed to a flat area of skin. Continuous single-twitch stimulation was applied at 1 Hz. After the twitch height stabilized, the mode was switched to train-of-four stimulation (TOF mode, stimulus current 5 mA, frequency 2 Hz, pulse width 0.2 ms, interval between trains 15 s) for at least 5 min. Calibration was then performed using Calibration Mode 2, followed by TOF mode stimulation. After obtaining a stable stimulation response for at least 2 min, cisatracurium solution was infused intravenously using a dual-channel micro-infusion pump, and the start time of infusion was recorded. […] At this point, cisatracurium infusion was stopped. After stopping the infusion, neuromuscular function was allowed to recover spontaneously. When neuromuscular function reached moderate recovery, the test drug formulation was administered intravenously. Neuromuscular function was allowed to recover completely, and the administration time was recorded (Figure 1). Using the time of spontaneous recovery to moderate neuromuscular function (TOF50) as zero point, the times for recovery from TOF50 to TOF75, TOF75 to TOF90, and TOF50 to TOF90 were calculated for each animal (Table 1-2). Arterial blood pressure (systolic, diastolic, mean arterial pressure) and heart rate were recorded before cisatracurium infusion, at the time cisatracurium infusion was stopped, at the time of moderate neuromuscular recovery, and at the time of complete neuromuscular function recovery (Tables 3-7). Data were expressed as Mean ± SD. Statistical T-tests were performed using SPSS software to evaluate differences in blood pressure, heart rate, and residual neuromuscular blockade recovery times. P < 0.05 was considered statistically significant.
# [2] = test system: Hypersensitivity-Related Factors; test: Antibody array (Ary028 immune chip kit): hypersensitivity-related factors after repeated dosing; assay type: in vivo; conditions: ICR mice; tail vein once daily for 5 days; Adamgammadex sodium 1 g/kg, Sugammadex sodium 1 mg/kg, Neostigmine 0.3 mg/kg; pooled plasma of 2 mice; N.D. = below minimum detection limit
# Method: (§1) An antibody array is a type of protein chip characterized by miniaturization, integration, and high throughput. It can be used to detect the expression abundance of proteins related to a specific physiological or pathological process. The principle involves arranging capture antibodies on a membrane or glass slide, incubating with the sample, adding biotin-labeled antibodies against the target proteins, and finally using HRP-streptavidin or fluorescein-streptavidin to detect the chip signal. Signals are detected using chemiluminescence or HiLyte™ Fluor 555-streptavidin.
# (§2) In this experiment, ICR mice were randomly divided into a blank group, Adamgammadex sodium (1 g/kg) group, Sugammadex sodium (1 mg/kg) group, and Neostigmine (0.3 mg/kg) group, with 2 mice per group. Mice in each group given the corresponding dosage of compound via the tail vein once daily for 5 consecutive days. On the last day after administration, plasma from the 2 animals per group was mixed and detected using the Ary028 immune chip kit. Specific detection steps were as follows: • (1) Sample volume determination: 200 µL serum sample per Array unit. (2) Blocking protein chip: Each membrane was blocked with 2 mL of corresponding Array Buffer, incubated on a shaker for 1 hour. (3) Sample processing: Samples were diluted with corresponding Array Buffer to a volume of 1.5 mL per membrane, the corresponding Array unit was added, and incubated overnight with the Array protein membrane at 4°C. (4) Membranes were washed three times with corresponding Wash buffer, then diluted detection antibody was added and incubated at room temperature for 1 h. (5) Membranes were washed three times with corresponding Wash buffer, streptavidin-HRP was added and incubated for 30min at room temperature with shaking. (6) Membranes were washed three times with corresponding Wash buffer, 1 mL of chemiluminescent reagent was added to each well, and developed on a chemiluminescence imager. (7) Fluorescence intensity was used to represent the relative concentration of the corresponding protein.
# [3] = test system: Inflammation-Related Factors; assay type: in vivo, ICR mice; conditions: Adamgammadex sodium 1 g/kg, Sugammadex sodium 1 mg/kg, Neostigmine 0.3 mg/kg; for impact on inducing immune inflammation in mice (in words): conclusion from Tables 3 and 4; for Fluorescence Intensity M-CSF (Macrophage lysis-stimulating factor): second M-CSF line of Table 4
# Method: as §1, §2
# [4] = positive control group, 0.0625 mg/kg i.v.
# [5] = ICR mice, tail vein once daily for 5 days, pooled plasma of 2 mice, N.D. = below minimum detection limit
# [6] = high-dose test group, 40 mg/kg i.v.
# [7] = low-dose test group, 10 mg/kg i.v.
# [8] = medium-dose test group, 20 mg/kg i.v.
compound,measurement,setting,value
"CN(C)C(=O)Oc1cccc([N+](C)(C)C)c1 [Neostigmine, neostigmine methylsulfate]",Residual Muscle Relaxation Recovery Time Ratios RtTOF50-75/0-50,[1]; [4],0.09±0.07
same,Residual Muscle Relaxation Recovery Time Ratios RtTOF50-90/0-50,[1]; [4],0.18±0.09
same,Residual Muscle Relaxation Recovery Time Ratios RtTOF75-90/0-50,[1]; [4],0.09±0.07
same,Residual Muscle Relaxation Recovery Time tTOF50-75,[1]; [4],101 ± 71 s
same,Residual Muscle Relaxation Recovery Time tTOF50-90,[1]; [4],188 ± 86 s
same,Residual Muscle Relaxation Recovery Time tTOF75-90,[1]; [4],87 ± 68 s
same,Residual Muscle Relaxation Recovery Time tTOF0-50,[1]; [4],1134 ± 281 s
same,Degree of tTOF50-90 shortening,[1]; [4],58.7%
same,Fluorescence Intensity CCL11 (Eosinophil activation chemokine),[2],6286.81
same,Fluorescence Intensity CCL12 (Monocyte chemotactic receptor 5),[2],5003.37
same,Fluorescence Intensity GM-CSF (Granulocyte-macrophage colony-stimulating factor),[2],1679.67
same,Fluorescence Intensity IL-1α (Interleukin 1α),[2],1891.15
same,Fluorescence Intensity IL-1β (Interleukin 1β),[2],1087.46
same,Fluorescence Intensity IL-3 (Interleukin 3),[2],1133.66
same,Fluorescence Intensity IL-4 (Interleukin 4),[2],3939.66
same,Fluorescence Intensity IL-5 (Interleukin-5),[2],1864.09
same,Fluorescence Intensity IL-6 (Interleukin-6),[2],2321.39
same,Fluorescence Intensity IL-15 (Interleukin-15),[2],1503.8
same,Fluorescence Intensity TNF-α (Tumor necrosis factor),[2],1116.77
same,Fluorescence Intensity BAFF/BlyS/ TNFSF13B (B cell activation factor),[3]; [5],12170.94
same,Fluorescence Intensity C-Reactive Protein/CRP (C-reactive protein),[3]; [5],11999.12
same,Fluorescence Intensity CCL17/TARC (Thymus activation regulatory chemokine),[3]; [5],3653.32
same,Fluorescence Intensity CCL19/MIP 3β (Macrophage inflammatory protein 3β),[3]; [5],3385.33
same,Fluorescence Intensity CCL20/MIP 3α (Macrophage inflammatory protein 3α),[3]; [5],4440.55
same,Fluorescence Intensity CCL21/6Ckine (Lymphocyte chemokine CCL21),[3]; [5],17119.34
same,Fluorescence Intensity CCL22/MDC (Macrophage-derived chemokine),[3]; [5],4762.19
same,Fluorescence Intensity CD160 (Leukocyte differentiation antigen160),[3]; [5],4298.1
same,Fluorescence Intensity CX3CL1/ Gractalkine (Neural chemokine),[3]; [5],2935.07
same,Fluorescence Intensity CXCL1/KC (Neutrophil chemokine),[3]; [5],2935.82
same,Fluorescence Intensity CXCL9/MIG (IFN-γ-induced monocyte factor),[3]; [5],1730.04
same,Fluorescence Intensity CXCL10/IP-10 (Interferon-induced protein 10),[3]; [5],1971.99
same,Fluorescence Intensity CXCL11/I-TAC (Interferon-induced T cell chemokines),[3]; [5],2397.51
same,Fluorescence Intensity CXCL13 (CXC family chemokine),[3]; [5],3607.1
same,Fluorescence Intensity CXCL16 (CXC family chemokine),[3]; [5],2426.598
same,Fluorescence Intensity Chemerin (Chemotactic factor),[3]; [5],7955.57
same,Fluorescence Intensity G-CSF (Granulocyte colony-stimulating factor),[3]; [5],1289.56
same,Fluorescence Intensity IL-2 (Interleukin-2),[3]; [5],1107.85
same,Fluorescence Intensity IL-7 (Interleukin-7),[3]; [5],3226.41
same,Fluorescence Intensity IL-10 (Interleukin-10),[3]; [5],1601.99
same,Fluorescence Intensity IL-11 (Interleukin-11),[3]; [5],2195.99
same,Fluorescence Intensity IL-12p40 (Interleukin IL-12p40),[3]; [5],2936.85
same,Fluorescence Intensity IL-13 (Interleukin-13),[3]; [5],1609.58
same,Fluorescence Intensity IL-15 (Interleukin-15),[3]; [5],1503.8
same,Fluorescence Intensity IL-17A (Interleukin -17A),[3]; [5],783.45
same,Fluorescence Intensity IL-22 (Interleukin-22),[3]; [5],1253.05
same,Fluorescence Intensity IL-23 (Interleukin-23),[3]; [5],1483.72
same,Fluorescence Intensity IL-27p28 (Interleukin-27p28),[3]; [5],1575.98
same,Fluorescence Intensity IL-28 (Interleukin-28),[3]; [5],3505.78
same,Fluorescence Intensity IL-33 (Interleukin-33),[3]; [5],1897.86
same,Fluorescence Intensity M-CSF (Macrophage colony-stimulating factor),[3]; [5],6478.33
same,Fluorescence Intensity Myeloperoxidase (Mastoperoxidase),[3]; [5],6395.44
same,Fluorescence Intensity Pentraxin 3 (Pertussis toxin 3),[3]; [5],3694.57
same,Fluorescence Intensity TIM-1/KIM-1/ HAVCR (Hepatitis A virus receptor-1 (inflammation/ immunity)),[3]; [5],1197.17
same,impact on inducing immune inflammation in mice (in words),[3],most severe impact
same,Fluorescence Intensity M-CSF (Macrophage lysis-stimulating factor),[3]; [5],6478.33
same,Fluorescence Intensity Pentraxin 3/TSG-14 (Pertussis toxin 3),"[3]; second Pentraxin 3 line of Table 4, ICR mice, tail vein once daily for 5 days, pooled plasma of 2 mice, N.D. = below minimum detection limit",3694.57
Adamgammadex sodium [Compound 1],Residual Muscle Relaxation Recovery Time Ratios RtTOF50-75/0-50,[1]; [6],0.10±0.11
same,Residual Muscle Relaxation Recovery Time Ratios RtTOF50-90/0-50,[1]; [6],0.16±0.11
same,Residual Muscle Relaxation Recovery Time Ratios RtTOF75-90/0-50,[1]; [6],0.06±0.06
same,Residual Muscle Relaxation Recovery Time tTOF50-75,[1]; [6],131 ± 144 s
same,Residual Muscle Relaxation Recovery Time tTOF50-90,[1]; [6],201 ± 131 s
same,Residual Muscle Relaxation Recovery Time tTOF75-90,[1]; [6],71 ± 52 s
same,Residual Muscle Relaxation Recovery Time tTOF0-50,[1]; [6],1413 ± 693 s
same,Degree of tTOF50-90 shortening,[1]; [6],55.8%
same,Residual Muscle Relaxation Recovery Time Ratios RtTOF50-75/0-50,[1]; [7],0.14±0.10
same,Residual Muscle Relaxation Recovery Time Ratios RtTOF50-90/0-50,[1]; [7],0.23±0.13
same,Residual Muscle Relaxation Recovery Time Ratios RtTOF75-90/0-50,[1]; [7],0.09±0.05
same,Residual Muscle Relaxation Recovery Time tTOF50-75,[1]; [7],143 ± 85 s
same,Residual Muscle Relaxation Recovery Time tTOF50-90,[1]; [7],248 ± 139 s
same,Residual Muscle Relaxation Recovery Time tTOF75-90,[1]; [7],105 ± 78 s
same,Residual Muscle Relaxation Recovery Time tTOF0-50,[1]; [7],1093 ± 427 s
same,Degree of tTOF50-90 shortening,[1]; [7],45.5%
same,Residual Muscle Relaxation Recovery Time Ratios RtTOF50-75/0-50,[1]; [8],0.12±0.05
same,Residual Muscle Relaxation Recovery Time Ratios RtTOF50-90/0-50,[1]; [8],0.22±0.08
same,Residual Muscle Relaxation Recovery Time Ratios RtTOF75-90/0-50,[1]; [8],0.09±0.07
same,Residual Muscle Relaxation Recovery Time tTOF50-75,[1]; [8],159 ± 72 s
same,Residual Muscle Relaxation Recovery Time tTOF50-90,[1]; [8],279 ± 123 s
same,Residual Muscle Relaxation Recovery Time tTOF75-90,[1]; [8],120 ± 99 s
same,Residual Muscle Relaxation Recovery Time tTOF0-50,[1]; [8],1349 ± 381 s
same,Degree of tTOF50-90 shortening,[1]; [8],38.7%
same,Fluorescence Intensity CCL12 (Monocyte chemotactic receptor 5),[2],168.83
same,Fluorescence Intensity IL-4 (Interleukin 4),[2],225.32
same,Fluorescence Intensity IL-6 (Interleukin-6),[2],89.83
same,Fluorescence Intensity BAFF/BlyS/ TNFSF13B (B cell activation factor),[3]; [5],6659.29
same,Fluorescence Intensity C-Reactive Protein/CRP (C-reactive protein),[3]; [5],5549.81
same,Fluorescence Intensity CCL21/6Ckine (Lymphocyte chemokine CCL21),[3]; [5],8082.61
same,Fluorescence Intensity CCL22/MDC (Macrophage-derived chemokine),[3]; [5],738.38
same,Fluorescence Intensity Chemerin (Chemotactic factor),[3]; [5],2680.26
same,Fluorescence Intensity IL-7 (Interleukin-7),[3]; [5],1850.57
same,Fluorescence Intensity IL-28 (Interleukin-28),[3]; [5],244.77
same,Fluorescence Intensity M-CSF (Macrophage colony-stimulating factor),[3]; [5],871.82
same,Fluorescence Intensity Myeloperoxidase (Mastoperoxidase),[3]; [5],1927.54
same,impact on inducing immune inflammation in mice (in words),[3],smallest impact
same,Fluorescence Intensity M-CSF (Macrophage lysis-stimulating factor),[3]; [5],871.82
